Measurements: article PMC7168327, “Designed Antimicrobial Peptides for Topical Treatment of Antibiotic Resistant Acne Vulgaris” (Antibiotics, 2020)
Converted amounts (≈) assume the structure as drawn. “And” between values parts separate entries of the source, which are not always exact repeats. Equal entries are not always repeated. Where two headings read alike, the source gives them in different places. Bridge positions count the residues as written; N and C are the ends. Square brackets hold non-standard residues; d marks the D form. Peptide text beside a SMILES is read from it. Orn = NCCC[C@H](N)C(=O)O

Tests used:
[1] = system: C. acnes HL043PA2 compared to human keratinocytes; format: cell-based
Protocol: In evaluating the clinical utility of each of the candidate dAMPs for C. acnes treatment, the Therapeutic Index was determined. The Therapeutic Index is defined as the ratio of concentration at which the dAMP is active against the prokaryotic C. acnes pathogen without inducing cytotoxic damage to the surrounding mammalian cells. The EC10 and EC50 doses, defined as the concentrations required to kill 10% and 50% respectively of human keratinocytes following 8 h incubation with each of the Riptide dAMPs, are tabulated and graphed in Table 2 and Figure 3, respectively. The larger the Therapeutic Index, the greater the specificity of the dAMP for destroying C. acnes cells.
(§1) Single colonies were inoculated in Reinforced Clostridium Medium (RCM) broth supplemented with sodium thioglycolate and incubated at 37 °C, with shaking at 200 rpm, for 2 or 3 days to reach logarithmic growth (OD600nm = 1.0). Each C. acnes (1 × 10^6 CFU per mL) was incubated with dAMP or clindamycin at two-fold serial dilutions (0.5–32 μg per mL) in RCM on a 96-well microplate for 48 h. Three replicas were included for each test article concentration. Bacterial growth was measured by optical density at 600 nm to determine the MIC for each dAMP applied.
(§2) Noninvasive and real-time monitoring of mammalian cytotoxicity to assess the potential skin toxicity of the dAMPs was evaluated using bioluminescent human immortalized keratinocytes (HaCaT, AddexBio, San Diego, CA, USA). The bioluminescent variant of HaCaT was constructed by transfection with a luciferase gene (RediFect Red-Fluc-Puromycin, Cat# CL596002). Keratinocytes (1 × 10^4 cells, 100 μL) were plated in 96-well black-walled plates. The candidate dAMPs were 2-fold serially diluted from 1024 µg/mL in growth medium supplemented with 150 µg/mL D-luciferin. Each concentration was performed in triplicate, with the final volume being 200 μL. Imaging was performed at select times (0, 15, and 30 min and 1, 3, 5, and 8 h) after the addition of the dAMP, and compared to concurrently run vehicle-control, using an IVIS Lumina imaging system (Caliper Life Sciences, Inc., Hopkinton, MA, USA). For imaging, the 96-well plate was positioned on the stage (12.5-cm field of view), with an open emission filter, binning of 4, and f-stop 1 and a 1-min exposure time. Data analysis was performed using the Living Image software program (version 4.3, Caliper Life Sciences, Inc.). The dAMP concentrations required to kill 10% and 50% of keratinocytes were determined using GraphPad Prism 7 (GraphPad Software, San Diego, CA, USA).

C. acnes HL043PA2 = format: cell-based, Cutibacterium acnes
Protocol: (§3) The ten antibiotic resistant C. acnes clinical isolates were acquired from BEI resources with the two reference strains obtained from American Type Culture Collection (ATCC, Manassas, VA, USA). C. acnes is a relatively slow-growing, typically aerotolerant anaerobic so all in vitro C. acnes experiments were performed under anaerobic conditions.
as §1

C. acnes HL053PA1 = format: cell-based, Cutibacterium acnes
Protocol: as §3, §1

[2] = system: ten C. acnes clinical isolates and two C. acnes ATCC reference strains; format: cell-based, Cutibacterium acnes; details: for in vitro anti-bacterial activity against the C. acnes bacterial strains (in words): 0.5–32 μg/mL concentration range evaluated
Protocol: as §3, §1

C. acnes HL056PA1 = format: cell-based, Cutibacterium acnes
Protocol: as §3, §1

C. acnes HL013PA1 = format: cell-based, Cutibacterium acnes
Protocol: as §3, §1

C. acnes HL045PA1 = format: cell-based, Cutibacterium acnes
Protocol: as §3, §1

C. acnes ATCC6919 = format: cell-based, Cutibacterium acnes
Protocol: as §3, §1

C. acnes HL072PA1 = format: cell-based, Cutibacterium acnes
Protocol: as §3, §1

C. acnes ATCC11827 = format: cell-based, Cutibacterium acnes
Protocol: as §3, §1

C. acnes HL038PA1 = format: cell-based, Cutibacterium acnes
Protocol: as §3, §1

C. acnes HL043PA1 = format: cell-based, Cutibacterium acnes
Protocol: as §3, §1

C. acnes HL082PA2 = format: cell-based, Cutibacterium acnes
Protocol: as §3, §1

C. acnes HL007PA1 = format: cell-based, Cutibacterium acnes
Protocol: as §3, §1

[3] = system: bioluminescent human immortalized keratinocytes (HaCaT); experiment: Mammalian cytotoxicity, bioluminescent human keratinocytes; format: cell-based; details: for EC50, concentration required to kill 50% of human keratinocytes: 8 h
Protocol: as §2

MIC (C. acnes HL043PA2; HL043PA2, 48 h) [µg/mL]	MIC (C. acnes HL053PA1; HL053PA1, 48 h) [µg/mL]	MIC (C. acnes HL056PA1; HL056PA1, 48 h) [µg/mL]	MIC (C. acnes HL013PA1; HL013PA1, 48 h) [µg/mL]	MIC (C. acnes HL045PA1; HL045PA1, 48 h) [µg/mL]	MIC (C. acnes ATCC6919; ATCC6919, 48 h) [µg/mL]	MIC (C. acnes HL072PA1; HL072PA1, 48 h) [µg/mL]	MIC (C. acnes ATCC11827; ATCC11827, 48 h) [µg/mL]	MIC (C. acnes HL038PA1; HL038PA1, 48 h) [µg/mL]	MIC (C. acnes HL043PA1; HL043PA1, 48 h) [µg/mL]	MIC (C. acnes HL082PA2; HL082PA2, 48 h) [µg/mL]	MIC (C. acnes HL007PA1; HL007PA1, 48 h) [µg/mL]	Compound	in vitro anti-bacterial activity against the C. acnes bacterial strains (in words) [2]	Therapeutic Index (EC50 / MIC) ([1]; 8 h)	EC50, concentration required to kill 50% of human keratinocytes [3] [µg/mL]	further results
												CC[C@H](C)[C@@H]1NC(=O)CNC(=O)[C@H](CCCCN)NC(=O)[C@H](Cc2ccc(O)cc2)NC(=O)[C@@H]2CSSC[C@H](NC1=O)C(=O)N[C@@H](Cc1ccccc1)C(=O)N[C@@H](CCCCN)C(=O)N[C@@H](CCCCN)C(=O)N[C@H](C(=O)N[C@@H](CCCCN)C(N)=O)CSSC[C@H](NC(=O)[C@H](Cc1ccccc1)NC(=O)[C@@H](N)CCCNC(=N)N)C(=O)N[C@@H](Cc1c[nH]c3ccccc13)C(=O)N[C@@H](CCCCN)C(=O)N[C@@H](C(C)C)C(=O)N2 [RP557] (H-RFCWKVCYKGICFKKCK-NH2; disulfide 3-16, 7-12)	most active			Therapeutic Index (EC10 / MIC) ([1]; keratinocyte EC10 (8 h) versus MIC against HL043PA2 C. acnes): 30.8; Therapeutic Index (EC50 / MIC) ([1]; keratinocyte EC50 (8 h) versus MIC against HL043PA2 C. acnes): 35 and 35.1; MIC (C. acnes HL043PA2; C. acnes HL043PA2 (multi-drug resistant), RCM broth, anaerobic, 1 × 10^6 CFU per mL, two-fold dilutions 0.5–32 μg/mL, 48 h, OD 600 nm, mean of three replicates): 8 µg/mL (≈ 3.75 µM); MIC (C. acnes HL053PA1; C. acnes HL053PA1, RCM broth, anaerobic, 1 × 10^6 CFU per mL, two-fold dilutions 0.5–32 μg/mL, 48 h, OD 600 nm, mean of three replicates): 4 µg/mL (≈ 1.87 µM); MIC values against all C. acnes isolates ([2]; span over ten antibiotic resistant isolates and two ATCC reference strains): 2 to 8 µg/mL; MIC (C. acnes HL056PA1; C. acnes HL056PA1, RCM broth, anaerobic, 1 × 10^6 CFU per mL, two-fold dilutions 0.5–32 μg/mL, 48 h, OD 600 nm, mean of three replicates): 4 µg/mL (≈ 1.87 µM); MIC (C. acnes HL013PA1; C. acnes HL013PA1, RCM broth, anaerobic, 1 × 10^6 CFU per mL, two-fold dilutions 0.5–32 μg/mL, 48 h, OD 600 nm, mean of three replicates): 2 µg/mL (≈ 0.936 µM); MIC (C. acnes HL045PA1; C. acnes HL045PA1, RCM broth, anaerobic, 1 × 10^6 CFU per mL, two-fold dilutions 0.5–32 μg/mL, 48 h, OD 600 nm, mean of three replicates): 4 µg/mL (≈ 1.87 µM); MIC (C. acnes ATCC6919; C. acnes ATCC6919, RCM broth, anaerobic, 1 × 10^6 CFU per mL, two-fold dilutions 0.5–32 μg/mL, 48 h, OD 600 nm, mean of three replicates): 8 µg/mL (≈ 3.75 µM); MIC (C. acnes HL072PA1; C. acnes HL072PA1, RCM broth, anaerobic, 1 × 10^6 CFU per mL, two-fold dilutions 0.5–32 μg/mL, 48 h, OD 600 nm, mean of three replicates): 8 µg/mL (≈ 3.75 µM); MIC (C. acnes ATCC11827; C. acnes ATCC11827, RCM broth, anaerobic, 1 × 10^6 CFU per mL, two-fold dilutions 0.5–32 μg/mL, 48 h, OD 600 nm, mean of three replicates): 8 µg/mL (≈ 3.75 µM); MIC (C. acnes HL038PA1; C. acnes HL038PA1, RCM broth, anaerobic, 1 × 10^6 CFU per mL, two-fold dilutions 0.5–32 μg/mL, 48 h, OD 600 nm, mean of three replicates): 8 µg/mL (≈ 3.75 µM); MIC (C. acnes HL043PA1; C. acnes HL043PA1, RCM broth, anaerobic, 1 × 10^6 CFU per mL, two-fold dilutions 0.5–32 μg/mL, 48 h, OD 600 nm, mean of three replicates): 8 µg/mL (≈ 3.75 µM); MIC (C. acnes HL082PA2; C. acnes HL082PA2, RCM broth, anaerobic, 1 × 10^6 CFU per mL, two-fold dilutions 0.5–32 μg/mL, 48 h, OD 600 nm, mean of three replicates): 2 µg/mL (≈ 0.936 µM); MIC (C. acnes HL007PA1; C. acnes HL007PA1, RCM broth, anaerobic, 1 × 10^6 CFU per mL, two-fold dilutions 0.5–32 μg/mL, 48 h, OD 600 nm, mean of three replicates): 8 µg/mL (≈ 3.75 µM); viability of human keratinocytes ([3]; 8 h incubation at 256 μg/mL, bioluminescent HaCaT): greater than 80%; EC10, concentration required to kill 10% of human keratinocytes ([3]; bioluminescent HaCaT, 1 × 10^4 cells/well, 8 h incubation, 2-fold dilutions from 1024 µg/mL, triplicate, IVIS imaging, GraphPad Prism 7): 246 µg/mL
>32	>32	>32	>32	>32	>32	>32	>32	>32	>32	>32	>32	CC[C@H](C)[C@H](NC(=O)[C@H](CCCN)NC(=O)[C@H](CC(C)C)NC(=O)[C@H](CCCNC(=N)N)NC(=O)[C@@H](N)Cc1ccccc1)C(=O)N[C@@H](CCCCN)C(=O)N[C@@H](C)C(=O)N[C@@H](CCCN)C(=O)N[C@@H](CC(C)C)C(=O)N[C@@H](CCCCN)C(=O)N[C@H](C(=O)N[C@@H](CCCN)C(=O)N[C@H](C(=O)N[C@@H](CCCNC(=N)N)C(=O)N[C@@H](Cc1ccccc1)C(=O)N[C@@H](CCCCN)C(=O)N[C@@H](CC(C)C)C(N)=O)[C@@H](C)CC)C(C)C [RP568] (H-FRL[Orn]IKA[Orn]LKV[Orn]IRFKL-NH2)	negligible activity	7.16	229	
16 (≈ 7.72 µM)	16 (≈ 7.72 µM)	16 (≈ 7.72 µM)	8 (≈ 3.86 µM)	16 (≈ 7.72 µM)	8 (≈ 3.86 µM)	16 (≈ 7.72 µM)	16 (≈ 7.72 µM)	16 (≈ 7.72 µM)	16 (≈ 7.72 µM)	16 (≈ 7.72 µM)	16 (≈ 7.72 µM)	CC[C@H](C)[C@H](NC(=O)[C@H](CCCCN)NC(=O)[C@H](CC(C)C)NC(=O)[C@H](CCCN)NC(=O)[C@H](CC(C)C)NC(=O)[C@H](CCCNC(=N)N)NC(=O)[C@H](C)NC(=O)[C@H](CCCNC(=N)N)NC(=O)[C@@H](NC(=O)[C@H](CCCN)NC(=O)[C@H](Cc1ccccc1)NC(=O)[C@H](CCCNC(=N)N)NC(=O)[C@H](C)NC(=O)[C@H](CCCCN)NC(=O)[C@@H](NC(=O)[C@H](CCCN)NC(=O)[C@@H](N)Cc1ccccc1)[C@@H](C)CC)C(C)C)C(N)=O [RP553] (H-F[Orn]IKARF[Orn]VRARL[Orn]LKI-NH2)	modest anti-bacterial activity	16.8	268	
